Earlier results in patent US20260335397A1, “TREATMENT OF GEOGRAPHIC ATROPHY” (Apellis Pharmaceuticals, Inc., priority 2022, published 2026).
Where a SMILES comes first, the peptide text is derived from it. Bridges are numbered along the chain shown (N, C = ends). [ ]: non-standard residue; d: D form. Abu = CC[C@H](N)C(=O)O

Tested on: complement activation
Conditions: relative to compstatin (C-terminally amidated); published data; cited from earlier work

Structure (SMILES)	Activity over compstatin [xmore]
CC[C@H](C)[C@H](NC(C)=O)C(=O)N[C@H]1CSSC[C@@H](C(=O)N[C@H](C(N)=O)[C@@H](C)O)NC(=O)[C@H](CCCNC(=N)N)NC(=O)[C@H](Cc2c[nH]cn2)NC(=O)[C@H](C)NC(=O)CNC(=O)[C@H](Cc2c[nH]c3ccccc23)NC(=O)[C@H](CC(=O)O)NC(=O)[C@H](CCC(N)=O)NC(=O)[C@H](Cc2ccc(C(=O)c3ccccc3)cc2)NC(=O)[C@H](C(C)C)NC1=O [Ac-V4(Bpa)/H9A]	86
CC[C@H](C)[C@H](NC(C)=O)C(=O)N[C@H]1CSSC[C@@H](C(=O)N[C@H](C(N)=O)[C@@H](C)O)NC(=O)[C@H](CCCNC(=N)N)NC(=O)[C@H](Cc2c[nH]cn2)NC(=O)[C@H](C)NC(=O)CNC(=O)[C@H](Cc2c[nH]c3ccc(F)cc23)NC(=O)[C@H](CC(=O)O)NC(=O)[C@H](CCC(N)=O)NC(=O)[C@H](Cc2cn(C)c3ccccc23)NC(=O)[C@H](C(C)C)NC1=O [Ac-V4(1MeW)/W7(5fW)/H9A]	264
CC[C@H](C)[C@H](NC(C)=O)C(=O)N[C@H]1CSSC[C@@H](C(=O)N[C@H](C(N)=O)[C@@H](C)O)NC(=O)[C@H](CCCNC(=N)N)NC(=O)[C@H](Cc2c[nH]cn2)NC(=O)[C@H](C)NC(=O)CNC(=O)[C@H](Cc2c[nH]c3ccccc23)NC(=O)[C@H](CC(=O)O)NC(=O)[C@H](CCC(N)=O)NC(=O)[C@H](Cc2c[nH]c3ccc(C)cc23)NC(=O)[C@H](C(C)C)NC1=O [Ac-V4(5-MeW)/H9A]	67
CC[C@H](C)[C@H](NC(C)=O)C(=O)N[C@H]1CSSC[C@@H](C(=O)N[C@H](C(N)=O)[C@@H](C)O)NC(=O)[C@H](CCCNC(=N)N)NC(=O)[C@H](Cc2c[nH]cn2)NC(=O)[C@H](C)NC(=O)CNC(=O)[C@H](Cc2c[nH]c3ccccc23)NC(=O)[C@H](CC(=O)O)NC(=O)[C@H](CCC(N)=O)NC(=O)[C@H](Cc2c[nH]c3ccccc23)NC(=O)[C@H](C(C)C)NC1=O [Ac-V4W/H9A]	45
CC[C@H](C)[C@H](NC(C)=O)C(=O)N[C@H]1CSSC[C@@H](C(=O)N[C@H](C(N)=O)[C@@H](C)O)NC(=O)[C@H](CCCNC(=N)N)NC(=O)[C@H](Cc2c[nH]cn2)NC(=O)[C@H](Cc2c[nH]cn2)NC(=O)CNC(=O)[C@H](Cc2c[nH]c3ccccc23)NC(=O)[C@H](CC(=O)O)NC(=O)[C@H](CCC(N)=O)NC(=O)[C@H](C(C)C)NC(=O)[C@H](C(C)C)NC1=O [Ac-compstatin]	3
CC[C@H](C)[C@H](NC(C)=O)C(=O)N[C@H]1CSSC[C@@H](C(=O)N[C@H](C(=O)O)[C@@H](C)O)NC(=O)[C@H](CCCNC(=N)N)NC(=O)[C@H](Cc2c[nH]cn2)NC(=O)[C@H](C)NC(=O)CNC(=O)[C@H](Cc2c[nH]c3ccccc23)NC(=O)[C@H](CC(=O)O)NC(=O)[C@H](CCC(N)=O)NC(=O)[C@H](C2Cc3ccccc3C2)NC(=O)[C@H](C(C)C)NC1=O [Ac-V42Igl/H9A-OH]	37
CC[C@H](C)[C@H](NC(C)=O)C(=O)N[C@H]1CSSC[C@@H](C(=O)N[C@H](C(N)=O)[C@@H](C)O)NC(=O)[C@H](CCCNC(=N)N)NC(=O)[C@H](Cc2c[nH]cn2)NC(=O)[C@H](C)NC(=O)CNC(=O)[C@H](Cc2c[nH]c3ccccc23)NC(=O)[C@H](CC(=O)O)NC(=O)[C@H](CCC(N)=O)NC(=O)[C@H](Cc2csc3ccccc23)NC(=O)[C@H](C(C)C)NC1=O [Ac-V4(Bta)/H9A]	64
CC[C@H](C)[C@H](NC(C)=O)C(=O)N[C@H]1CSSC[C@@H](C(=O)N[C@H](C(N)=O)[C@@H](C)O)NC(=O)[C@H](CCCNC(=N)N)NC(=O)[C@H](Cc2c[nH]cn2)NC(=O)[C@H](C)NC(=O)CNC(=O)[C@H](Cc2c[nH]c3ccccc23)NC(=O)[C@H](CC(=O)O)NC(=O)[C@H](CCC(N)=O)NC(=O)[C@H](Cc2ccc3ccccc3c2)NC(=O)[C@H](C(C)C)NC1=O [Ac-V4(2-Nal)/H9A]	99
CC[C@@H]1NC(=O)CNC(=O)[C@H](Cc2c[nH]c3ccccc23)NC(=O)[C@H](CC(=O)O)NC(=O)[C@H](CCC(N)=O)NC(=O)[C@H](Cc2c[nH]c3ccccc23)NC(=O)[C@H](C(C)C)NC(=O)[C@@H](NC(=O)[C@@H](NC(C)=O)[C@@H](C)CC)CSSC[C@@H](C(=O)N[C@H](C(N)=O)[C@@H](C)O)NC(=O)[C@H](CCCNC(=N)N)NC(=O)[C@H](Cc2c[nH]cn2)NC1=O [Ac-V4W/H9(2-Abu)] (Ac-ICVWQDWG[Abu]HRCT-NH2; disulfide 2-12)	64
CC[C@H](C)[C@H](NC(C)=O)C(=O)N[C@H]1CSSC[C@@H](C(=O)N[C@H](C(=O)O)[C@@H](C)O)NC(=O)[C@H](CCCNC(=N)N)NC(=O)[C@H](Cc2c[nH]cn2)NC(=O)[C@H](C)NC(=O)CNC(=O)[C@H](Cc2c[nH]c3ccccc23)NC(=O)[C@H](CC(=O)O)NC(=O)[C@H](CCC(N)=O)NC(=O)[C@H](Cc2csc3ccccc23)NC(=O)[C@H](C(C)C)NC1=O [Ac-V4(Bta)/H9A-OH]	65
CC[C@H](C)[C@H](NC(C)=O)C(=O)N[C@H]1CSSC[C@@H](C(=O)N[C@H](C(N)=O)[C@@H](C)O)NC(=O)[C@H](CCCNC(=N)N)NC(=O)[C@H](Cc2c[nH]cn2)NC(=O)[C@H](C)NC(=O)CNC(=O)[C@H](Cc2c[nH]c3ccccc23)NC(=O)[C@H](CC(=O)O)NC(=O)[C@H](CCC(N)=O)NC(=O)[C@H](C2Cc3ccccc3C2)NC(=O)[C@H](C(C)C)NC1=O [Ac-V42Igl/H9A]	39
CC[C@H](C)[C@H](NC(C)=O)C(=O)N[C@H]1CSSC[C@@H](C(=O)N[C@H](C(N)=O)[C@@H](C)O)NC(=O)[C@H](CCCNC(=N)N)NC(=O)[C@H](Cc2c[nH]cn2)NC(=O)[C@H](C)NC(=O)CNC(=O)[C@H](Cc2c[nH]c3ccccc23)NC(=O)[C@H](CC(=O)O)NC(=O)[C@H](CCC(N)=O)NC(=O)[C@H](Cc2c[nH]c3ccc(F)cc23)NC(=O)[C@H](C(C)C)NC1=O [Ac-V4(5fW)/H9A]	31
CC[C@H](C)[C@H](NC(=O)CN)C(=O)N[C@H]1CSSC[C@@H](C(=O)N[C@H](C(=O)N[C@@H](CC(N)=O)C(=O)O)[C@@H](C)O)NC(=O)[C@H](CCCNC(=N)N)NC(=O)[C@H](Cc2c[nH]cn2)NC(=O)[C@H](C)NC(=O)CNC(=O)[C@H](Cc2c[nH]c3cc(F)ccc23)NC(=O)[C@H](CC(=O)O)NC(=O)[C@H](CCC(N)=O)NC(=O)[C@H](Cc2c[nH]c3cc(F)ccc23)NC(=O)[C@H](C(C)C)NC1=O [+G/V4(6fW)/W7(6fW)H9A+N-OH]	126
CC[C@H](C)[C@H](NC(C)=O)C(=O)N[C@H]1CSSC[C@@H](C(=O)N[C@H](C(=O)O)[C@@H](C)O)NC(=O)[C@H](CCCNC(=N)N)NC(=O)[C@H](Cc2c[nH]cn2)NC(=O)[C@H](C)NC(=O)CNC(=O)[C@H](Cc2c[nH]c3ccccc23)NC(=O)[C@H](CC(=O)O)NC(=O)[C@H](CCC(N)=O)NC(=O)[C@H](Cc2cccc3ccccc23)NC(=O)[C@H](C(C)C)NC1=O [Ac V4(1-Nal)/H9A-OH]	30
CC[C@H](C)[C@H](NC(C)=O)C(=O)N[C@H]1CSSC[C@@H](C(=O)N[C@H](C(=O)O)[C@@H](C)O)NC(=O)[C@H](CCCNC(=N)N)NC(=O)[C@H](Cc2c[nH]cn2)NC(=O)[C@H](C)NC(=O)CNC(=O)[C@H](Cc2c[nH]c3ccccc23)NC(=O)[C@H](CC(=O)O)NC(=O)[C@H](CCC(N)=O)NC(=O)[C@H](Cc2ccc(C(=O)c3ccccc3)cc2)NC(=O)[C@H](C(C)C)NC1=O [Ac-V4(Bpa)/H9A-OH]	49
CC[C@H](C)[C@H](NC(C)=O)C(=O)N[C@H]1CSSC[C@@H](C(=O)N[C@H](C(=O)O)[C@@H](C)O)NC(=O)[C@H](CCCNC(=N)N)NC(=O)[C@H](Cc2c[nH]cn2)NC(=O)[C@H](C)NC(=O)CNC(=O)[C@H](Cc2c[nH]c3ccccc23)NC(=O)[C@H](CC(=O)O)NC(=O)[C@H](CCC(N)=O)NC(=O)[C@H](Cc2ccc3ccccc3c2)NC(=O)[C@H](C(C)C)NC1=O [Ac V4(2-Nal)/H9A-OH]	38
CC[C@H](C)[C@H](NC(C)=O)C(=O)N[C@H]1CSSC[C@@H](C(=O)N[C@H](C(N)=O)[C@@H](C)O)NC(=O)[C@H](CCCNC(=N)N)NC(=O)[C@H](Cc2c[nH]cn2)NC(=O)[C@H](C)NC(=O)CNC(=O)[C@H](Cc2c[nH]c3ccc(F)cc23)NC(=O)[C@H](CC(=O)O)NC(=O)[C@H](CCC(N)=O)NC(=O)[C@H](Cc2c[nH]c3ccccc23)NC(=O)[C@H](C(C)C)NC1=O [Ac-V4W/W7(5fW)/H9A]	121
CC[C@H](C)[C@H](NC(C)=O)C(=O)N[C@H]1CSSC[C@@H](C(=O)N[C@@H](C(=O)O)[C@H](C)O)NC(=O)[C@H](CCCNC(=N)N)NC(=O)[C@H](Cc2c[nH]cn2)NC(=O)[C@H](C)NC(=O)CNC(=O)[C@H](Cc2c[nH]c3ccccc23)NC(=O)[C@H](CC(=O)O)NC(=O)[C@H](CCC(N)=O)NC(=O)[C@H](Cc2c[nH]c3ccccc23)NC(=O)[C@H](C(C)C)NC1=O [Ac-V4W/H9A/T13dT-OH]	55
CC[C@H](C)[C@H](NC(C)=O)C(=O)N[C@H]1CSSC[C@@H](C(=O)N[C@H](C(N)=O)[C@@H](C)O)NC(=O)[C@H](CCCNC(=N)N)NC(=O)[C@H](Cc2c[nH]cn2)NC(=O)[C@H](C)NC(=O)CNC(=O)[C@H](Cc2c[nH]c3ccccc23)NC(=O)[C@H](CC(=O)O)NC(=O)[C@H](CCC(N)=O)NC(=O)[C@H](Cc2ccc(O)cc2)NC(=O)[C@H](C(C)C)NC1=O [Ac-V4Y/H9A]	14
